Test results reported in ChEMBL document CHEMBL1909046, “DrugMatrix in vitro pharmacology data”.

Legend:
[1] = DRUGMATRIX: beta-Lactamase enzyme inhibition (substrate: Nitrocefin); set-up: species or system Bacillus cereus; conditions: Not Active = under 50% inhibition at 10 µM
[2] = DRUGMATRIX: Serotonin (5-Hydroxytryptamine) 5-HT3 radioligand binding (ligand: [3H] GR-65630); type: cell membranes, Membrane; conditions: hek293; Not Active = under 50% inhibition at 10 µM
[3] = biological target: T1, C-C chemokine receptor type 4 (Homo sapiens, UniProt P51679); type: cell membranes, Chem-1, Membrane; conditions: chem-1; further: in other assays of this panel Not Active means under 50% inhibition at 10 µM
T1 sequence (P51679 whole entry): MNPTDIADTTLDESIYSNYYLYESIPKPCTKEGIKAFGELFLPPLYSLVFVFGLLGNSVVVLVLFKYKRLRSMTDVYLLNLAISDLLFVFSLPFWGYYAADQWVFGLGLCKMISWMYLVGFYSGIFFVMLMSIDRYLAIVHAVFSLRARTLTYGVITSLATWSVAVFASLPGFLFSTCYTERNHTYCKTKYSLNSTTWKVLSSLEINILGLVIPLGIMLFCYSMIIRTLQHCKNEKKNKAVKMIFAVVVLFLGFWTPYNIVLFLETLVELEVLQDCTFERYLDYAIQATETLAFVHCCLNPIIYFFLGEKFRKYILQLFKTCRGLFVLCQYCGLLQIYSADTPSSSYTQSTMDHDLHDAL

[4] = biological target: T2, Cholecystokinin receptor type A (Homo sapiens, UniProt P32238); type: cell membranes, Membrane; conditions: 1321-n1; further: in other assays of this panel Not Active means under 50% inhibition at 10 µM
T2 sequence (P32238 whole entry): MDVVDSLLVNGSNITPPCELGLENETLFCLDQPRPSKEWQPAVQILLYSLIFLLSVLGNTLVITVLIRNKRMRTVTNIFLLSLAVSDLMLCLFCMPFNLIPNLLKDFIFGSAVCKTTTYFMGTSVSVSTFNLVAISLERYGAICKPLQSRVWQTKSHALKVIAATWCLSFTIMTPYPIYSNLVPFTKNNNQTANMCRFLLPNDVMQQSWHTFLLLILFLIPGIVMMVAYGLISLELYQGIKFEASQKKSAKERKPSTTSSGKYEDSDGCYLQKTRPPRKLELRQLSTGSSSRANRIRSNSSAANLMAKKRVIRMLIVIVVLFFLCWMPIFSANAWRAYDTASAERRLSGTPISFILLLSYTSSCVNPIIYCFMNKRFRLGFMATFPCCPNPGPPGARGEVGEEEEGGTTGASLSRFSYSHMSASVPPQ

[5] = biological target: T3, Neuropeptide Y receptor type 1 (Homo sapiens, UniProt P25929); type: cell membranes, Membrane; conditions: sk-n-mc; further: in other assays of this panel Not Active means under 50% inhibition at 10 µM
T3 sequence (P25929 whole entry): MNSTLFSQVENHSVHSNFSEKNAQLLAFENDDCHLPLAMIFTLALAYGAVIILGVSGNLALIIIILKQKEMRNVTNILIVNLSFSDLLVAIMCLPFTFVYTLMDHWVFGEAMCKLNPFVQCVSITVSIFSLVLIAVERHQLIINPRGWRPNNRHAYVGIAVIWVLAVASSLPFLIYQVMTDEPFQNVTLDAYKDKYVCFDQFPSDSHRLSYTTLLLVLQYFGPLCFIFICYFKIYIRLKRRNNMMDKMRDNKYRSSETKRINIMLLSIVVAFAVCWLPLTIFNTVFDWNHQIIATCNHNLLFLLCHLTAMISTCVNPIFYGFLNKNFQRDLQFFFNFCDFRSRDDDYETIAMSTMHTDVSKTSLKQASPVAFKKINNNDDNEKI

[6] = biological target: Platelet-activating factor receptor (Homo sapiens, UniProt P25105); type: tissue-based; further: in other assays of this panel Not Active means under 50% inhibition at 10 µM
[7] = biological target: Protein phosphatase 3 catalytic subunit alpha (Homo sapiens, UniProt Q08209); set-up: species or system Escherichia coli
Adenosine receptor A1 = biological target: T4, Adenosine receptor A1 (Homo sapiens, UniProt P30542); type: cell membranes, CHO, Membrane; conditions: cho
T4 sequence (P30542 whole entry): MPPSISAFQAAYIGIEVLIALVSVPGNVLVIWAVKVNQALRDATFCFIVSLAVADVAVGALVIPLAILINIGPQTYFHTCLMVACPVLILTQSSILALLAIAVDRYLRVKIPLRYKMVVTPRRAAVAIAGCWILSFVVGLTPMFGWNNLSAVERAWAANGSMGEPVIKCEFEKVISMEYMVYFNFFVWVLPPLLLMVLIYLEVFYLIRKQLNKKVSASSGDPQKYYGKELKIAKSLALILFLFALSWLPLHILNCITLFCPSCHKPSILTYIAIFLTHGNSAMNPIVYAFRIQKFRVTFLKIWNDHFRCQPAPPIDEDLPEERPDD

Platelet-activating factor receptor, sequence (P25105 whole entry): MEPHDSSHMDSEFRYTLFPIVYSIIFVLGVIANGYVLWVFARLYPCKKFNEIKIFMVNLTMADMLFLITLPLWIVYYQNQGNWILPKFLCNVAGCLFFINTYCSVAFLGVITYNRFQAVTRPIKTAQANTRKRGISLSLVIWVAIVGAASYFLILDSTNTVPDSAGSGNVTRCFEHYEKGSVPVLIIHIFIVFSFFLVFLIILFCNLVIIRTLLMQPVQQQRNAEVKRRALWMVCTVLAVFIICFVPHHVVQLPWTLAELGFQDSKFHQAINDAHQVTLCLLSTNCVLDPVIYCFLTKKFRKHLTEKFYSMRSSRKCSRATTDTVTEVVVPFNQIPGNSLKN

CC(C)Cn1cnc2c(N)nc3ccccc3c21 [IMIQUIMOD]
Not Active: IC50 [1] | Ki [1] | IC50 [2] | Ki [2] | IC50 [3] | IC50 [4] | IC50 [5] | IC50 [6] | IC50 [7] | IC50 (Adenosine receptor A1)

O=C(NCCN1CCOCC1)c1ccc(Cl)cc1 [MOCLOBEMIDE]
Not Active: IC50 [1] | Ki [1] | IC50 [2] | Ki [2] | IC50 [3] | IC50 [4] | IC50 [5] | IC50 [6] | IC50 [7] | IC50 (Adenosine receptor A1)

C=CCN1CC[C@]23c4c5ccc(O)c4O[C@H]2/C(=N/N=C2\CC[C@@]4(O)[C@H]6Cc7ccc(O)c8c7[C@@]4(CCN6CC=C)[C@H]2O8)CC[C@@]3(O)[C@H]1C5 [NALOXONAZINE]
Not Active: IC50 [1] | Ki [1] | IC50 [2] | Ki [2] | IC50 [3] | IC50 [4] | IC50 [5] | IC50 [6] | IC50 [7] | IC50 (Adenosine receptor A1)

Cc1ccnc2c1NC(=O)c1cccnc1N2C1CC1 [NEVIRAPINE]
Not Active: IC50 [1] | Ki [1] | IC50 [2] | Ki [2] | IC50 [3] | IC50 [4] | IC50 [5] | IC50 [6] | IC50 [7] | IC50 (Adenosine receptor A1)

O=C1CN(/N=C/c2ccc([N+](=O)[O-])o2)C(=O)N1 [NITROFURANTOIN]
Not Active: IC50 [1] | Ki [1] | IC50 [2] | Ki [2] | IC50 [3] | IC50 [4] | IC50 [5] | IC50 [6] | IC50 [7] | IC50 (Adenosine receptor A1)

C#C[C@]1(O)CC[C@H]2[C@@H]3CCC4=CC(=O)CC[C@@H]4[C@H]3CC[C@@]21C [NORETHINDRONE]
Not Active: IC50 [1] | Ki [1] | IC50 [2] | Ki [2] | IC50 [3] | IC50 [4] | IC50 [5] | IC50 [6] | IC50 [7] | IC50 (Adenosine receptor A1)

O=C(O)CCc1nc(-c2ccccc2)c(-c2ccccc2)o1 [OXAPROZIN]
Not Active: IC50 [1] | Ki [1] | IC50 [2] | Ki [2] | IC50 [3] | IC50 [4] | IC50 [5] | IC50 [6] | IC50 [7] | IC50 (Adenosine receptor A1)

Cc1cc(C(C)(C)C)c(O)c(C)c1CC1=NCCN1 [OXYMETAZOLINE]
Not Active: IC50 [1] | Ki [1] | IC50 [2] | Ki [2] | IC50 [3] | IC50 [4] | IC50 [5] | IC50 [6] | IC50 [7] | IC50 (Adenosine receptor A1)

NC(=O)NC(=O)Cc1ccccc1 [PHENACEMIDE]
Not Active: IC50 [1] | Ki [1] | IC50 [2] | Ki [2] | IC50 [3] | IC50 [4] | IC50 [5] | IC50 [6] | IC50 [7] | IC50 (Adenosine receptor A1)

O=C1c2ccccc2C(=O)C1c1ccccc1 [PHENINDIONE]
Not Active: IC50 [1] | Ki [1] | IC50 [2] | Ki [2] | IC50 [3] | IC50 [4] | IC50 [5] | IC50 [6] | IC50 [7] | IC50 (Adenosine receptor A1)

CCC1(c2ccccc2)C(=O)NC(=O)NC1=O [PHENOBARBITAL]
Not Active: IC50 [1] | Ki [1] | IC50 [2] | Ki [2] | IC50 [3] | IC50 [4] | IC50 [5] | IC50 [6] | IC50 [7] | IC50 (Adenosine receptor A1)

Oc1ccccc1 [PHENOL]
Not Active: IC50 [1] | Ki [1] | IC50 [2] | Ki [2] | IC50 [3] | IC50 [4] | IC50 [5] | IC50 [6] | IC50 [7] | IC50 (Adenosine receptor A1)

c1ccc2c(c1)Nc1ccccc1S2 [PHENOTHIAZINE]
Not Active: IC50 [1] | Ki [1] | IC50 [2] | Ki [2] | IC50 [3] | IC50 [4] | IC50 [5] | IC50 [6] | IC50 [7] | IC50 (Adenosine receptor A1)

CCN1CCN(C(=O)N[C@@H](C(=O)N[C@@H]2C(=O)N3[C@@H]2SC(C)(C)[C@@H]3C(=O)O)c2ccccc2)C(=O)C1=O [PIPERACILLIN]
Not Active: IC50 [1] | Ki [1] | IC50 [2] | Ki [2] | IC50 [3] | IC50 [4] | IC50 [5] | IC50 [6] | IC50 [7] | IC50 (Adenosine receptor A1)

COc1cc([C@@H]2c3cc4c(cc3[C@H](O)[C@H]3COC(=O)[C@H]23)OCO4)cc(OC)c1OC [PODOFILOX]
Not Active: IC50 [1] | Ki [1] | IC50 [2] | Ki [2] | IC50 [3] | IC50 [4] | IC50 [5] | IC50 [6] | IC50 [7] | IC50 (Adenosine receptor A1)
